Test results from article PMC7586344, “Discovery of Novel pERK1/2- or β-Arrestin-Preferring 5-HT1A Receptor-Biased Agonists: Diversified Therapeutic-like versus Side Effect Profile” (Journal of Medicinal Chemistry, 2020).

Legend:
Experiment in all cases: Off-target binding screen
[1] = target: T1, 5-HT1B (Homo sapiens, UniProt P28222); details: read-out: % Inhibition of Control Specific Binding; for inhibition at 1 µM: 1000 nM
T1 construct: Eurofins Pharma Discovery Services (contract screen)

[2] = target: T2, 5-HT2A (Homo sapiens, UniProt P28223); details: 1000 nM, read-out: % Inhibition of Control Specific Binding
T2 construct: Eurofins Pharma Discovery Services (contract screen)

[3] = target: T3, 5-HT2B (Homo sapiens, UniProt P41595); details: 1000 nM, read-out: % Inhibition of Control Specific Binding
T3 construct: Eurofins Pharma Discovery Services (contract screen)

[4] = target: T4, 5-HT3 (Homo sapiens, UniProt P46098); details: 1000 nM, read-out: % Inhibition of Control Specific Binding
T4 construct: Eurofins Pharma Discovery Services (contract screen)
T4 sequence (P46098 24-478): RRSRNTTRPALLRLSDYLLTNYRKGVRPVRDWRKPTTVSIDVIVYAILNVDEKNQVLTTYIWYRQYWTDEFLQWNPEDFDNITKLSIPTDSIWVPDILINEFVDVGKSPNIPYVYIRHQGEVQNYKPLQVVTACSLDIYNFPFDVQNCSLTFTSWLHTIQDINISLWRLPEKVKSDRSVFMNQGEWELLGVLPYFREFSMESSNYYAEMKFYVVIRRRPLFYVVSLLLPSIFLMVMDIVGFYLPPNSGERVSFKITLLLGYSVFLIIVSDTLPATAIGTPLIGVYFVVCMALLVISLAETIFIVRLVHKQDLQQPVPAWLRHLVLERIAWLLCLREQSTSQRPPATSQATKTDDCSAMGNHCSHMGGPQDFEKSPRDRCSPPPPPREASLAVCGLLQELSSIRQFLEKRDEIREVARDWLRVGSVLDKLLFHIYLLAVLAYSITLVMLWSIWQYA

[5] = target: T5, α2A (Homo sapiens, UniProt P08913); details: read-out: % Inhibition of Control Specific Binding; for inhibition at 0.01 µM: 10 nM; for inhibition at 0.1 µM: 100 nM; for inhibition at 1 µM: 1000 nM
T5 construct: Eurofins Pharma Discovery Services (contract screen)
T5 sequence (P08913 1-465): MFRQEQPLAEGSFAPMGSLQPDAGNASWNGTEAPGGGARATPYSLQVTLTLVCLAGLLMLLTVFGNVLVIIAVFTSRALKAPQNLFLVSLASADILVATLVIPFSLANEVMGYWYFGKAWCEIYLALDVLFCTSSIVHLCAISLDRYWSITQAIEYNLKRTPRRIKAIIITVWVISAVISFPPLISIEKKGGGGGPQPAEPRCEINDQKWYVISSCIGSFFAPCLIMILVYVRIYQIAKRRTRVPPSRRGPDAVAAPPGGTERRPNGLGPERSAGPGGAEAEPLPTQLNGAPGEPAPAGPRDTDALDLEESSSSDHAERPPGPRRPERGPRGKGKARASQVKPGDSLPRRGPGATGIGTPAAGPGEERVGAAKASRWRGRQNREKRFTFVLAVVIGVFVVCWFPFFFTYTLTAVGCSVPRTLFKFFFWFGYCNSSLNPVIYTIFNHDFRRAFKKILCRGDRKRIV

[6] = target: T6, α2B (Homo sapiens, UniProt P18089); details: read-out: % Inhibition of Control Specific Binding; for inhibition at 0.01 µM: 10 nM; for inhibition at 0.1 µM: 100 nM; for inhibition at 1 µM: 1000 nM
T6 construct: Eurofins Pharma Discovery Services (contract screen)
T6 sequence (P18089 1-450): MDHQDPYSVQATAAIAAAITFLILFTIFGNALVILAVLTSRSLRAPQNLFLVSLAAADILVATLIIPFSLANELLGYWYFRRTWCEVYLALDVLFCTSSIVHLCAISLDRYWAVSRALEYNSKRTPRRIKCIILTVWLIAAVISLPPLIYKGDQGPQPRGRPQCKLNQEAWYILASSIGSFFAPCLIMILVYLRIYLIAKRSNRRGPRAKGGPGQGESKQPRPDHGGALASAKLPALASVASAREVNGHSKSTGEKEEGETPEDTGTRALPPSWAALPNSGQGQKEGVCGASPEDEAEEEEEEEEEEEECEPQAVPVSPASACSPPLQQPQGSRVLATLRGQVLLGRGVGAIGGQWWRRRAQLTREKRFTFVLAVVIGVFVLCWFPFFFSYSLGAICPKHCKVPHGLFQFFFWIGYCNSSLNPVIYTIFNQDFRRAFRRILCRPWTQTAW

[7] = target: T7, α2C (Homo sapiens, UniProt P18825); details: read-out: % Inhibition of Control Specific Binding; for inhibition at 0.001 µM: 1 nM; for inhibition at 0.01 µM: 10 nM; for inhibition at 0.1 µM: 100 nM; for inhibition at 1 µM: 1000 nM
T7 construct: Eurofins Pharma Discovery Services (contract screen)
T7 sequence (P18825 1-462): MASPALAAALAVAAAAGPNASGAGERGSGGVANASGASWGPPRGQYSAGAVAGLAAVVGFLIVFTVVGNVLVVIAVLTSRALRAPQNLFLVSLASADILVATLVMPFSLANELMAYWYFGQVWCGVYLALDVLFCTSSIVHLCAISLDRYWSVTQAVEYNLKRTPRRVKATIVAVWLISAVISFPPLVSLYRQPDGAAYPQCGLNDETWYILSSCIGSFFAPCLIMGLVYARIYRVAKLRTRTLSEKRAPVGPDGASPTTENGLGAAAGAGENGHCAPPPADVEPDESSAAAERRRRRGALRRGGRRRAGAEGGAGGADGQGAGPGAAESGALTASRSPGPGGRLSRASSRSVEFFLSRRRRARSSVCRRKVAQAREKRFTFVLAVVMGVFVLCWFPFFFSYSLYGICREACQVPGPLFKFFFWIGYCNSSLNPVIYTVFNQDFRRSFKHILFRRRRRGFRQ

[8] = target: T8, β3 (Homo sapiens, UniProt P13945); details: 1000 nM, read-out: % Inhibition of Control Specific Binding
T8 construct: Eurofins Pharma Discovery Services (contract assay)

[9] = target: T9, D5 (Homo sapiens, UniProt P21918); details: read-out: % Inhibition of Control Specific Binding; for inhibition at 1 µM: 1000 nM
T9 construct: Eurofins Pharma Discovery Services (contract assay)

[10] = target: T10, M3 (Homo sapiens, UniProt P20309); details: 1000 nM, read-out: % Inhibition of Control Specific Binding
T10 construct: Eurofins Pharma Discovery Services (contract assay)

[11] = target: T11, H4 (Homo sapiens, UniProt Q9H3N8); details: 1000 nM, read-out: % Inhibition of Control Specific Binding
T11 construct: Eurofins Pharma Discovery Services (contract assay)

[12] = target: T12, κ (KOR) (Homo sapiens, UniProt P41145); details: 1000 nM, read-out: % Inhibition of Control Specific Binding
T12 construct: Eurofins Pharma Discovery Services (contract assay)

[13] = target: T13, δ (DOR) (Homo sapiens, UniProt P41143); details: 1000 nM, read-out: % Inhibition of Control Specific Binding
T13 construct: Eurofins Pharma Discovery Services (contract assay)

[14] = target: T14, σ1 (Homo sapiens, UniProt Q99720); details: read-out: % Inhibition of Control Specific Binding; for inhibition at 0.01 µM: 10 nM; for inhibition at 0.1 µM: 100 nM; for inhibition at 1 µM: 1000 nM
T14 construct: Eurofins Pharma Discovery Services (contract assay)

[15] = target: T15, GABAA1 (α1,β2,γ2) (Homo sapiens, UniProt P14867+P18507+P47870); details: 1000 nM, read-out: % Inhibition of Control Specific Binding
T15 construct: Eurofins Pharma Discovery Services (contract assay)

[16] = target: T16, NET (Homo sapiens, UniProt P23975); details: 1000 nM, read-out: % Inhibition of Control Specific Binding
T16 construct: Eurofins Pharma Discovery Services

[17] = target: T17, DAT (Homo sapiens, UniProt Q01959); details: 1000 nM, read-out: % Inhibition of Control Specific Binding
T17 construct: Eurofins Pharma Discovery Services
T17 sequence (Q01959 whole entry, species assumed): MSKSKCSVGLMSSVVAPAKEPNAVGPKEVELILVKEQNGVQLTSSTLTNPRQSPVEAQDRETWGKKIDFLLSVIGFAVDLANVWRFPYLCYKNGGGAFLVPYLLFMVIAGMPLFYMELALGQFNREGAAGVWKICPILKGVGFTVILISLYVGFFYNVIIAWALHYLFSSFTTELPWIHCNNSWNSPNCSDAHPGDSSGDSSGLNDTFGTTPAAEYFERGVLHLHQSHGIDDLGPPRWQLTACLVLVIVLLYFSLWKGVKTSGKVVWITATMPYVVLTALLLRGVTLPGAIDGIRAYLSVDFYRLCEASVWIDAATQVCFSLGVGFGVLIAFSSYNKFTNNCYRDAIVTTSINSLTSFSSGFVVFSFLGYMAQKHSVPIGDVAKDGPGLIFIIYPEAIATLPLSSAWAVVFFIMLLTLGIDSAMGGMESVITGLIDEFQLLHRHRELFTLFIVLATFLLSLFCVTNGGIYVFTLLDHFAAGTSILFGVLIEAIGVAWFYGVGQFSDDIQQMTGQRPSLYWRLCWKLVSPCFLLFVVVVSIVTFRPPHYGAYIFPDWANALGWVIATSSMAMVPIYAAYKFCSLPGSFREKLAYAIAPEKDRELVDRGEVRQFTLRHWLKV

T8 sequence (P13945 whole entry): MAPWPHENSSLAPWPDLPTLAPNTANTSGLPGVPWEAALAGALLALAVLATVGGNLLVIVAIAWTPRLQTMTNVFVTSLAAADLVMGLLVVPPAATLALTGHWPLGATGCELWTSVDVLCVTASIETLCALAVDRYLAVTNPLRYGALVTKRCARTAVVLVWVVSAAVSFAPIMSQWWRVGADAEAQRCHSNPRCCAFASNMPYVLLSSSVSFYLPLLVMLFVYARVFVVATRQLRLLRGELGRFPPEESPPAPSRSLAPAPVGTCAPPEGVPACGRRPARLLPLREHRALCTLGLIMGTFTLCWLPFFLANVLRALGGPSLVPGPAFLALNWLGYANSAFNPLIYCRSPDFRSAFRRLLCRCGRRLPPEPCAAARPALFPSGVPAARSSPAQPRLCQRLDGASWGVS
T9 sequence (P21918 whole entry): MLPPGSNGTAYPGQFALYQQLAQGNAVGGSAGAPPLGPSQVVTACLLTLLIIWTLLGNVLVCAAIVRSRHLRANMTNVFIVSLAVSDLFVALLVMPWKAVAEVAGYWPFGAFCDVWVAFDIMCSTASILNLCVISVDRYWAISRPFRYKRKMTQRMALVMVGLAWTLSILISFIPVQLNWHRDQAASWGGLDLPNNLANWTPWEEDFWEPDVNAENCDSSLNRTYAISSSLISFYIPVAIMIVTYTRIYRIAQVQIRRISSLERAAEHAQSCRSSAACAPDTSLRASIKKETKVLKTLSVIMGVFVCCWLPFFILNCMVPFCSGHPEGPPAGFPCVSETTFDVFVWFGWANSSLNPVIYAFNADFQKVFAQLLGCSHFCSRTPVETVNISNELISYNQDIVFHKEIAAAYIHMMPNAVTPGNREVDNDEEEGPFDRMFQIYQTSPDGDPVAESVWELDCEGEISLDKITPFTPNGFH
T1 sequence (P28222 whole entry, species assumed): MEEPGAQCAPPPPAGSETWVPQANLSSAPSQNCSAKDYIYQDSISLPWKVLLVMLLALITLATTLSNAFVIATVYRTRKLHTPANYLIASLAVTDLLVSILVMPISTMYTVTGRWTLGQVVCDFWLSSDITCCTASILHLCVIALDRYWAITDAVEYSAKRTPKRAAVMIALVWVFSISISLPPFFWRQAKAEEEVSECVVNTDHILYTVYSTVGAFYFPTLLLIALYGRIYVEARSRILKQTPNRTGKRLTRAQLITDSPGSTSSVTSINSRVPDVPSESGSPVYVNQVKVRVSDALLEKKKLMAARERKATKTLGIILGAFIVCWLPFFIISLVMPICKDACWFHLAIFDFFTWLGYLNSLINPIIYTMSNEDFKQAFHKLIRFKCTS
T10 sequence (P20309 whole entry): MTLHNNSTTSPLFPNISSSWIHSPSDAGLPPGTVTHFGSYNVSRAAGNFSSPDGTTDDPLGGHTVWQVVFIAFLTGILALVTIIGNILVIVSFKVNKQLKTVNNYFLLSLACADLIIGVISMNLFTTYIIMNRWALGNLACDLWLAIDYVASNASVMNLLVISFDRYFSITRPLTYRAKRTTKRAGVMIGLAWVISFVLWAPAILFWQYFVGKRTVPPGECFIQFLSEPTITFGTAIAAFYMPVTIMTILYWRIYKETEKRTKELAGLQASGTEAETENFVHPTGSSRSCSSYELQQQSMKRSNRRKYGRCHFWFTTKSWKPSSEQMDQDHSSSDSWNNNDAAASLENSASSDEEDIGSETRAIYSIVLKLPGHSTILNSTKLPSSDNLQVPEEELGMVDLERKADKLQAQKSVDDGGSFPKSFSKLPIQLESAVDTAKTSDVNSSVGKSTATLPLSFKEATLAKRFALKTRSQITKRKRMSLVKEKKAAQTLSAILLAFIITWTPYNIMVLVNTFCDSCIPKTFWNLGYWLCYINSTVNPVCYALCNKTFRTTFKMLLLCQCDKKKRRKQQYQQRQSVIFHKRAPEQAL
T14 sequence (Q99720 whole entry): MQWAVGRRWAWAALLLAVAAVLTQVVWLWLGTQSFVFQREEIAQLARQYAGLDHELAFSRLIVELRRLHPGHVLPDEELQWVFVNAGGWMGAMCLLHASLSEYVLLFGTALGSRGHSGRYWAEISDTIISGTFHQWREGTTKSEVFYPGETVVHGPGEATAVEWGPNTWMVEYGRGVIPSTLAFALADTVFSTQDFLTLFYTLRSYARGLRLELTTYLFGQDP
T13 sequence (P41143 whole entry): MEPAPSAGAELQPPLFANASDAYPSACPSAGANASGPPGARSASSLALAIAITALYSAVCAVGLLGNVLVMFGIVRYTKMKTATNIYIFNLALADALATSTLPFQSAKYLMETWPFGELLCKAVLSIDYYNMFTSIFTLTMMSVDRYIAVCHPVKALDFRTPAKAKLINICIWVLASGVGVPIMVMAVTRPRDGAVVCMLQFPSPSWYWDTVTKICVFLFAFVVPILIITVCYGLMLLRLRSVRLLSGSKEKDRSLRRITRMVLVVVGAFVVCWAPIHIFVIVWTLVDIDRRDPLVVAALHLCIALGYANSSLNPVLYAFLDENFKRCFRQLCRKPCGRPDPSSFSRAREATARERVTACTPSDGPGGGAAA
T3 sequence (P41595 whole entry, species assumed): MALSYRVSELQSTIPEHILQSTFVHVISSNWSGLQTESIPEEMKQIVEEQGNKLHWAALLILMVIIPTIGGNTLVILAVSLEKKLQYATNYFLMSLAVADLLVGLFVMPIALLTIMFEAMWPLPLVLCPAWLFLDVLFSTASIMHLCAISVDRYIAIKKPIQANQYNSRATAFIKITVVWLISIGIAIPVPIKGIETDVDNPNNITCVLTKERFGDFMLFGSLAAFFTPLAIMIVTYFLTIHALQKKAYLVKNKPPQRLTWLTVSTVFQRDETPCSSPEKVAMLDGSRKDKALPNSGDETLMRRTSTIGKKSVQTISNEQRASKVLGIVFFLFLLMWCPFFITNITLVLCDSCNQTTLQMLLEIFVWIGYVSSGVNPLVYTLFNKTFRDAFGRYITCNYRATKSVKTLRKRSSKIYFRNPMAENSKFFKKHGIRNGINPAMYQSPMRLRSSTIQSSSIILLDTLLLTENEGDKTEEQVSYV
T15 sequence (P14867 28-456): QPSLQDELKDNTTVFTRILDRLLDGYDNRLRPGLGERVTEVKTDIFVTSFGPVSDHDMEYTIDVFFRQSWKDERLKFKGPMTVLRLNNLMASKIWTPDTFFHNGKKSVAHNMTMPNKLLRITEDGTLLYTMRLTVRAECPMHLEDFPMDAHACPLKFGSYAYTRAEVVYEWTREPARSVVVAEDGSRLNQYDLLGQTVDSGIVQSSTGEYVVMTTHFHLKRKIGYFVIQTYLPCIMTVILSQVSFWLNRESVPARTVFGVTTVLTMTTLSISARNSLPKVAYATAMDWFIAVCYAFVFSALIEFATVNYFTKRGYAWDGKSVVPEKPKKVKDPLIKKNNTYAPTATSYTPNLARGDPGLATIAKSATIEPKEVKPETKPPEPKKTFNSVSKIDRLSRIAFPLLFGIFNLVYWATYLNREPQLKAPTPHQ
T15 sequence (P47870 25-512 limits assumed): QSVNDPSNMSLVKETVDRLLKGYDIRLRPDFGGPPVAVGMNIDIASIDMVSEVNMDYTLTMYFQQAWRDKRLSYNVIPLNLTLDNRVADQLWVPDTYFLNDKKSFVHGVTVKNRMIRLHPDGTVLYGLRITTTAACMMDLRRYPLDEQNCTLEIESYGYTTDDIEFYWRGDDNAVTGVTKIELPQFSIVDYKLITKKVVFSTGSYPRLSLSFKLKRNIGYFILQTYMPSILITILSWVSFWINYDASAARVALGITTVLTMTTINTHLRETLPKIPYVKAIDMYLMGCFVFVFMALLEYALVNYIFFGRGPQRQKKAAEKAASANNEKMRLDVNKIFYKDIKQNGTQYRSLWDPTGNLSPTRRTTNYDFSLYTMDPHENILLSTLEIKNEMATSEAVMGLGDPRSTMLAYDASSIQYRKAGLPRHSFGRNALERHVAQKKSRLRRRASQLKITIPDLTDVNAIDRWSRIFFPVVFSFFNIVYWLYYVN
T15 sequence (P18507 40-475): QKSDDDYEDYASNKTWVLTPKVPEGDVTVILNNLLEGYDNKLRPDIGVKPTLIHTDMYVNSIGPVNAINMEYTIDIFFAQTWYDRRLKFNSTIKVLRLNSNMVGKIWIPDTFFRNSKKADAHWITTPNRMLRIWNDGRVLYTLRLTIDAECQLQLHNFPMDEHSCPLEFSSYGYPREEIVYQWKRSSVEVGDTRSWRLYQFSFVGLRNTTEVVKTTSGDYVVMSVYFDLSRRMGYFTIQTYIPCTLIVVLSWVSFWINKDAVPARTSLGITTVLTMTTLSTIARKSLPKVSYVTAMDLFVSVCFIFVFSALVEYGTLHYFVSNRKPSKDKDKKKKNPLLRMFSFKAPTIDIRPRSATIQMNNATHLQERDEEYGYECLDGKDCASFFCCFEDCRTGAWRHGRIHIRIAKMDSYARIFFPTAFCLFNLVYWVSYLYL

| Structure (SMILES) | inhibition at 1 µM [1] | inhibition at 1 µM [2] | inhibition at 1 µM [3] | inhibition at 1 µM [4] | inhibition at 0.01 µM [5] | inhibition at 0.1 µM [5] | inhibition at 1 µM [5] | inhibition at 1 µM [6] | inhibition at 1 µM [8] | inhibition at 1 µM [9] | inhibition at 1 µM [10] | inhibition at 1 µM [11] | inhibition at 1 µM [12] | inhibition at 1 µM [13] | inhibition at 0.01 µM [14] | inhibition at 0.1 µM [14] | inhibition at 1 µM [14] | inhibition at 1 µM [15] | inhibition at 1 µM [16] | inhibition at 1 µM [17] | other results |
| --- | --- | --- | --- | --- | --- | --- | --- | --- | --- | --- | --- | --- | --- | --- | --- | --- | --- | --- | --- | --- | --- |
| O=C(c1ccc(F)c(Cl)c1)N1CCC(F)(CNCCOc2ccccc2)CC1 [Compound 3] | -7% | 3% | 11% | -4% | -5% | 21% | 66% | 85% | -2% | 40% | 1% | -11% | 4% | 3% | 1% | 15% | 88% | -18% | -7% | -2% | inhibition at 0.01 µM [6]: -2%; inhibition at 0.1 µM [6]: 45%; inhibition at 0.001 µM [7]: 1%; inhibition at 0.01 µM [7]: 18%; inhibition at 0.1 µM [7]: 66%; inhibition at 1 µM [7]: 92% |
| O=C(c1ccc(F)c(Cl)c1)N1CCC(F)(CNCCOc2cccc3[nH]ccc23)CC1 [Compound 56, (4-(((2-((1H-Indol-4-yl)oxy)ethyl)amino)methyl)-4-fluoropiperidin-1-yl)(3-chloro-4-fluorophenyl)methanone] | 63% | 10% | 48% | -10% | -7% | 33% | 81% | 75% | 1% | 91% | 1% | 5% | 6% | 0% | 1% | 22% | 86% | -13% | 5% | 37% | inhibition at 0.01 µM ([1]; 10 nM): 1%; inhibition at 0.1 µM ([1]; 100 nM): 17%; inhibition at 0.01 µM [6]: -8%; inhibition at 0.1 µM [6]: 29%; inhibition at 0.001 µM [7]: 3%; inhibition at 0.01 µM [7]: 18%; inhibition at 0.1 µM [7]: 74%; inhibition at 0.001 µM ([9]; 1 nM): -10%; inhibition at 0.01 µM ([9]; 10 nM): -3%; inhibition at 0.1 µM ([9]; 100 nM): 53% |
| CNc1ccccc1OCCNCC1(F)CCN(C(=O)c2ccc(F)c(Cl)c2)CC1 [Compound 44, (3-Chloro-4-fluorophenyl)(4-fluoro-4-(((2-(2-(methylamino)phenoxy)ethyl)amino)methyl)piperidin-1-yl)methanone] | 0% | -2% | 23% | -11% |  |  | 10% | -2% | -7% | 29% | 9% | -11% | -2% | -5% | 11% | 31% | 84% | -4% | 0% | 0% | inhibition at 1 µM [7]: 32% |
